What is called Ki is a measure of affinity in units of concentration, obtained from inhibition or displacement. Lower therefore signals higher affinity. As usually defined, the inhibition in vivo is the drop in the measured response relative to a control, in per cent.

Assay [1] deals with T1, Tryptase (Homo sapiens, UniProt Q9BZJ3+Q15661+Q9NRR2). Briefly: Inhibition of tryptase activity. In kind it is protein assay.
In assay [2] the target is Prothrombin (Homo sapiens, UniProt P00734). Briefly: Inhibition of thrombin.
Assay [3] in a line: Compound was tested for inhibitory activity against tryptase. Further details: species or system Homo sapiens.
Assay [4] addresses T1, Tryptase. Briefly: Compound was tested for inhibitory activity against tryptase; Not determined (value more than […]). In kind it is protein assay.
Assay [5] relates to Rattus norvegicus. Briefly: Effect of compound on PCA reaction in rats at a i.v. dose of 1 mg/kg 1 hr prior to antigen challenge. In kind it is functional. The settings on record: route intravenous.

`N=C(N)NCCCCC(=O)N1CCN(C(=O)COc2ccc(OCC(=O)N3CCN(C(=O)CCCCNC(=N)N)CC3)cc2)CC1`: the Ki in assay [1] turned out to be 80000 nM.

Consider `N=C(NCc1ccccc1)c1ccc2oc(C(=O)N3CCN(C(=O)COc4ccc(OCC(=O)N5CCN(C(=O)c6cc7cc(C(=N)NCc8ccccc8)ccc7o6)CC5)cc4)CC3)cc2c1`, for which the inhibition constant Ki in assay [1] is 1100 nM.

In the case of `N=C(N)c1ccc2oc(C(=O)N3CCN(C(=O)CCCCCCCC(=O)N4CCN(C(=O)c5cc6cc(C(=N)N)ccc6o5)CC4)CC3)cc2c1`, the inhibition constant (Ki) in assay [1] was 0.019 nM; in assay [2], 230 µM. On to `N=C(N)c1ccc2oc(C(=O)N3CCN(C(=O)CC(=O)N4CCN(C(=O)c5cc6cc(C(=N)N)ccc6o5)CC4)CC3)cc2c1`, for which the inhibition constant (Ki) is 0.65 µM in assay [3] and 82 µM in assay [2].

`N=C(N)c1ccc2oc(C(=O)N3CCN(C(=O)COc4ccccc4)CC3)cc2c1`: in assay [1], the Ki turned out to be 3000 nM.

Take `N=C(N)N1CCc2sc(C(=O)N3CCN(C(=O)COc4ccc(OCC(=O)N5CCN(C(=O)c6cc7c(s6)CCN(C(=N)N)C7)CC5)cc4)CC3)cc2C1`: the Ki is 0.046 nM in assay [1] and 29 µM in assay [2]. Compound `N=C(N)c1ccc2oc(C(=O)N3CCN(C(=O)N4CCN(C(=O)c5cc6cc(C(=N)N)ccc6o5)CC4)CC3)cc2c1` came in with an inhibition constant Ki in assay [1] of 460 nM. With `N=C(N)c1ccc2oc(C(=O)N3CCN(C(=O)CCCC(=O)N4CCN(C(=O)c5cc6cc(C(=N)N)ccc6o5)CC4)CC3)cc2c1`, the inhibition constant Ki in assay [3] came out at 0.0088 µM; in assay [2], 32 µM. `O=C(COc1ccc(OCC(=O)N2CCN(C(=O)CC(=O)N3CCNCC3)CC2)cc1)N1CCN(C(=O)CC(=O)N2CCNCC2)CC1` returned a Ki in assay [1] of 13000 nM. For the compound `N=C(N)c1ccc2oc(C(=O)N3CCN(C(=O)CCC(=O)N4CCN(C(=O)c5cc6cc(C(=N)N)ccc6o5)CC4)CC3)cc2c1`, the inhibitory constant (Ki) in assay [3] came to 0.015 µM; in assay [2] it was 51 µM. As for `O=C(CCCC(=O)N1CCNCC1)C(=O)N1CCN(C(=O)COc2ccc(OCC(=O)N3CCN(C(=O)C(=O)CCCC(=O)N4CCNCC4)CC3)cc2)CC1`, in assay [4], the inhibitory constant (Ki) entry was “Value more than 1x10^4”. In the case of `N=C(N)c1ccc2oc(C(=O)N3CCN(C(=O)COc4ccc(OCC(=O)NCc5ccccc5)cc4)CC3)cc2c1`, the Ki in assay [3] is 0.037 µM; in assay [2], 28 µM. Take `N=C(N)c1ccc2oc(C(=O)N3CCN(C(=O)CCCCC(=O)N4CCN(C(=O)c5cc6cc(C(=N)N)ccc6o5)CC4)CC3)cc2c1`: the results for the inhibition constant Ki in assay [3] and in assay [2] were 0.00086 µM and 23 µM, respectively.

On to `N=C(N)c1ccc2sc(C(=O)N3CCN(C(=O)COc4ccc(OCC(=O)N5CCN(C(=O)c6cc7cc(C(=N)N)ccc7s6)CC5)cc4)CC3)cc2c1`, for which the inhibition constant Ki in assay [1] is 0.028 nM; in assay [2] it was 22 µM. For the compound `O=C(CCC(=O)N1CCNCC1)CC(=O)N1CCN(C(=O)COc2ccc(OCC(=O)N3CCN(C(=O)CC(=O)CCC(=O)N4CCNCC4)CC3)cc2)CC1`, the Ki result in assay [4] was “Value more than 1x10^4”.

Consider `N=C(N)c1ccc2oc(C(=O)N3CCN(C(=O)COc4ccc(OCC(=O)N5CCCCC5)cc4)CC3)cc2c1`, for which, in assay [1], the Ki came out at 60 nM. Regarding `N=C(N)c1ccc2oc(C(=O)N3CCN(C(=O)COc4ccc(OCC(=O)N5CCN(C(=O)c6cc7cc(C(=N)N)ccc7o6)CC5)cc4)CC3)cc2c1`, the results for the Ki in assay [1] and in assay [2] were 0.057 nM and 32 µM, respectively.

`N=C(N)c1ccc2oc(C(=O)N3CCN(C(=O)COc4ccc(OCC(=O)N5CCNCC5)cc4)CC3)cc2c1` came in with a Ki in assay [1] of 67 nM. On the same count and under the same terms, with `CN(C)C(=N)c1ccc2oc(C(=O)N3CCN(C(=O)COc4ccc(OCC(=O)N5CCN(C(=O)c6cc7cc(C(=N)N(C)C)ccc7o6)CC5)cc4)CC3)cc2c1` the figure was 6600 nM; with `N=C(N)NCCCCCC(=O)N1CCN(C(=O)COc2ccc(OCC(=O)N3CCN(C(=O)CCCCCNC(=N)N)CC3)cc2)CC1`, 23000 nM.

In the case of `N=C(N)c1ccc2oc(C(=O)N3CCN(C(=O)CO[C@H]4CCC[C@@H](OCC(=O)N5CCN(C(=O)c6cc7cc(C(=N)N)ccc7o6)CC5)CCC4)CC3)cc2c1`, in assay [5], at 1 mg/kg the inhibition in vivo was 51%. For the same compound, the Ki in assay [1] was found to be 0.029 nM; in assay [2], 15 µM. Consider `N=C(N)Nc1ccc2oc(C(=O)N3CCN(C(=O)COc4ccc(OCC(=O)N5CCN(C(=O)c6cc7cc(NC(=N)N)ccc7o6)CC5)cc4)CC3)cc2c1`, for which the values for the inhibition constant Ki in assay [1] and in assay [2] were 1100 nM and 24 µM, respectively. `N=C(N)c1ccc2oc(C(=O)N3CCN(C(=O)COc4ccccc4OCC(=O)N4CCN(C(=O)c5cc6cc(C(=N)N)ccc6o5)CC4)CC3)cc2c1`: the results for the Ki in assay [1] and in assay [2] were 1.1 nM and 88 µM, respectively. On to `N=C(N)c1ccc2oc(C(=O)N3CCN(C(=O)CCCCCC(=O)N4CCN(C(=O)c5cc6cc(C(=N)N)ccc6o5)CC4)CC3)cc2c1`, for which the Ki in assay [3] worked out at 0.0012 µM; in assay [2], 85 µM. With `CCOC(=O)COc1ccc(OCC(=O)N2CCN(C(=O)c3cc4cc(C(=N)N)ccc4o3)CC2)cc1`, the Ki in assay [1] was found to be 210 nM. `N=C(N)c1ccc2oc(C(=O)N3CCN(C(=O)COc4ccc(OCC(=O)Nc5ccc(-c6c[nH]cn6)cc5)cc4)CC3)cc2c1`: the inhibition constant (Ki) in assay [3] was 0.0068 µM; in assay [2] it was 5.3 µM. `N=C(N)c1ccc2oc(C(=O)N3CCN(C(=O)CCCCCCC(=O)N4CCN(C(=O)c5cc6cc(C(=N)N)ccc6o5)CC4)CC3)cc2c1` displayed an inhibition constant (Ki) in assay [1] of 0.12 nM. On the same count and under the same terms, with `O=C(COc1ccc(OCC(=O)N2CCN(C(=O)c3cc4c(s3)CCNC4)CC2)cc1)N1CCN(C(=O)c2cc3c(s2)CCNC3)CC1` the figure was 970 nM.

As to `N=C(N)NCCCCCCC(=O)N1CCN(C(=O)COc2ccc(OCC(=O)N3CCN(C(=O)CCCCCCNC(=N)N)CC3)cc2)CC1`, the inhibitory constant (Ki) in assay [1] turned out to be 13000 nM.
